Results on 1 molecule are retold here after ChEMBL document CHEMBL5120867, “Hernandezine Regulates Proliferation and Autophagy-Induced Apoptosis in Melanoma Cells” (J Nat Prod, 2022).

Assay type in all cases: functional
Assay [1] relates to A-375. In words: Induction of cell cycle arrest in human A-375 cells assessed as accumulation at G0/G1 phase incubated for 24 hrs by PI staining based flow cytometry analysis (reference value: 56.69 %).
Assay [2] has as its system A-375. In words: Induction of cell cycle arrest in human A-375 cells assessed as accumulation at S phase incubated for 24 hrs by PI staining based flow cytometry analysis (reference value: 34.44 %).
In assay [3] the test system is A-375. In words: Induction of cell cycle arrest in human A-375 cells assessed as accumulation at G2/M phase incubated for 24 hrs by PI staining based flow cytometry analysis (reference value: 8.87 %). (In general: A flow cytometer gives signals particle by particle.)
The test system of assay [4] is B16. The assay can be described thus: Induction of cell cycle arrest in mouse B16 cells assessed as accumulation at G0/G1 phase incubated for 24 hrs by PI staining based flow cytometry analysis (reference value: 56.59 %).
The subject of assay [5] is B16. The assay can be described thus: Induction of cell cycle arrest in mouse B16 cells assessed as accumulation at S phase incubated for 24 hrs by PI staining based flow cytometry analysis (reference value: 42.53 %).
The test system of assay [6] is B16. In words: Induction of cell cycle arrest in mouse B16 cells assessed as accumulation at G2/M phase incubated for 24 hrs by PI staining based flow cytometry analysis (reference value: 0.88 %).

Regarding `N#C/C(=C\c1ccc(O)c(O)c1)C(=O)NCc1ccccc1`, the Activity in the assay on A-375 [1] was found to be 61.48%; with A-375 [2], 31.61%; in the assay on A-375 [3] it was 6.92%; in the assay on B16 [4], 82.17%; with B16 [5] it was 15.11%; with B16 [6], 2.72%.
